Data reported in ChEMBL document CHEMBL1201862, “PubChem BioAssay data set” (2004).
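Protocol summary: plate cells (96-well), add compound at 5 concentrations, incubate 48 h, interpolate endpoints linearly. The concentration for 50% growth inhibition is given as GI50.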 Active and inactive are the calls of the source. Cut-off read from the data, not from the text of the source: active = GI50 up to about 1.1 µM and inactive = higher.

How the values were obtained:
Experiment in all cases: growth of human tumour cells (NCI), 48 h
786-0 = system: 786-0
A498 = system: A498
A549 = system: A549
ACHN = system: ACHN
CAKI-1 = system: CAKI-1
CCRF-CEM = system: CCRF-CEM
COLO 205 = system: COLO 205
DLD-1 = system: DLD-1
DMS-114 = system: DMS-114
DMS-273 = system: DMS-273
EKVX = system: EKVX
HCC 2998 = system: HCC 2998
HCT-116 = system: HCT-116
HCT-15 = system: HCT-15
HL-60 = system: HL-60
HOP-62 = system: HOP-62
HOP-92 = system: HOP-92
HT-29 = system: HT-29
IGROV-1 = system: IGROV-1
K562 = system: K562
KM-20L2 = system: KM-20L2
KM12 = system: KM12
LOX IMVI = system: LOX IMVI
LXFL 529 = system: LXFL 529
M14 = system: M14
M19-MEL = system: M19-MEL
MOLT-4 = system: MOLT-4
Malme-3M = system: Malme-3M
NCI-H226 = system: NCI-H226
NCI-H23 = system: NCI-H23
NCI-H460 = system: NCI-H460
NCI-H522 = system: NCI-H522
OVCAR-3 = system: OVCAR-3
OVCAR-4 = system: OVCAR-4
OVCAR-5 = system: OVCAR-5
OVCAR-8 = system: OVCAR-8
RPMI-8226 = system: RPMI-8226
RXF 393 = system: RXF 393
SF-295 = system: SF-295
SF-539 = system: SF-539
SK-MEL-28 = system: SK-MEL-28
SK-MEL-2 = system: SK-MEL-2
SK-MEL-5 = system: SK-MEL-5
SK-OV-3 = system: SK-OV-3
SN12C = system: SN12C
SNB-19 = system: SNB-19
SNB-75 = system: SNB-75
SNB-78 = system: SNB-78
SW-620 = system: SW-620
TK-10 = system: TK-10
U-251 = system: U-251
UACC-257 = system: UACC-257
UACC-62 = system: UACC-62
UO-31 = system: UO-31
XF498 = system: XF498

Measured: GI50

CN(N=O)C(=O)N(N)CCCCC(NC(=O)OCc1ccccc1)C(=O)OCc1ccccc1 (stereo not given)
90.4 µM: HCT-15
inactive: 786-0 18.5 µM | A498 69.7 µM | A549 81.8 µM | ACHN 19 µM | CAKI-1 25.6 µM | CCRF-CEM 14.3 µM | COLO 205 18.5 µM | DLD-1 58.7 µM | DMS-114 44 µM | DMS-273 32.2 µM | EKVX > 100 µM | HCC 2998 18.2 µM | HCT-116 29.8 µM | HL-60 5.25 µM | HOP-62 9.75 µM | HOP-92 10.7 µM | HT-29 79.6 µM | IGROV-1 49.2 µM | K562 45.4 µM | KM-20L2 > 100 µM | KM12 38.8 µM | LOX IMVI 17.9 µM | LXFL 529 53.2 µM | M14 23 µM | M19-MEL 36.1 µM | MOLT-4 18.9 µM | Malme-3M 40.1 µM | NCI-H226 22.2 µM | NCI-H23 14.6 µM | NCI-H460 32.5 µM | NCI-H522 11.7 µM | OVCAR-3 23.1 µM | OVCAR-4 33.7 µM | OVCAR-5 > 100 µM | OVCAR-8 33.7 µM | RPMI-8226 > 100 µM | RXF 393 12.9 µM | SF-295 75.9 µM | SF-539 16 µM | SK-MEL-28 > 100 µM | SK-MEL-2 91.6 µM | SK-MEL-5 44.7 µM | SK-OV-3 > 100 µM | SN12C 18.6 µM | SNB-19 > 100 µM | SNB-75 20.6 µM | SNB-78 31.9 µM | SW-620 65.9 µM | TK-10 > 100 µM | U-251 38.9 µM | UACC-257 18.7 µM | UACC-62 18.5 µM | UO-31 18.7 µM | XF498 8.41 µM
